Laboratory results taken from paper PMC7188728, “A phase I study investigation of metabolism, and disposition of [^14C]-anlotinib after an oral administration in patients with advanced refractory solid tumors” (Cancer Chemotherapy and Pharmacology, 2020).

Assay: Metabolite radio-profiling (LC-RAM, LC-MS/MS) of plasma, urine and feces
Assay type: in vivo, human
Details: pooled plasma 2–96 h, subjects 03–06
Method: An equal volume of 2, 4, 8, 12, 24, and 96 h plasma sample was pooled by time-point across subject 03 ~ 06, to give six pooled plasma samples for metabolite profiling. An appropriate volume (3x, v/v) of acetonitrile was added to a portion of the pooled plasma sample, followed by vortexing ca. 2 min. After storage in a refrigerator for ca. 30 min, the mixture was centrifuged at ca. 10000 g at 4 °C for 10 min. The supernatant was then separated from the PES, which was suspended with water, followed by addition of methanol (2x, v/v) twice. The three extracts were combined and evaporated to dryness under a nitrogen stream by an N-Evap evaporator at room temperature. The residues were reconstituted with an appropriate volume of methanol:water (1:1, v/v) and centrifuged at ca. 10000 g at 4 ℃ for 10 min. The supernatant was subjected to HPLC radio-profiling.
Four pooled human urine samples (subject 03 ~ 06) were pooled from 0 to 432 h based on equal volume ratios from the individual patients across time intervals. In addition, three pooled urine samples (0–48, 48–120 and 360–432 h) (subjects 03–06) were prepared by pooling human urine samples across subjects and time points. Portion of the pooled urine sample was evaporated to a small volume under a nitrogen stream and extracted with methanol (3x, v/v) followed by centrifuged at ca. 10000 g at 4 ℃ for 10 min. The supernatant was reconstituted with an appropriate volume of methanol:water (1:1, v/v) and centrifuged at ca. 10000 g at 4 ℃ for 10 min. The supernatant was subjected to HPLC radio-profiling.
Four human fecal samples (0–432 h) were prepared by pooling feces from individual subjects (Subjects 03–06). In addition, three pooled human fecal samples (0–48, 48–120 and 360–432 h) were prepared by pooling feces samples across subjects and time points. The pooled fecal homogenate was extracted with methanol (3x, v/v) and the mixture was vortexed, and centrifuged at ca. 10000 g at 4 ℃ for 10 min. The supernatant was then separated from the PES, which was suspended with water, followed by addition of methanol twice. The three extracts were combined and evaporated to dryness under a nitrogen stream by an N-Evap evaporator at room temperature. The residues were reconstituted with an appropriate volume of methanol:water (1:1, v/v) and centrifuged at ca. 10000 g at 4 ℃ for 10 min prior to analysis.
HPLC coupled with radioactivity monitor (LC-RAM) was used to isolate and quantitate [^14C] anlotinib and its metabolites. The plasma and fecal extracts as well as urine supernatants were subjected to HPLC separation, fractionation, and eluent collection. The radioactivity in each fraction was monitored by solid scintillation counting using a Packard TopCount® NXT™ Microplate Counter. The radio-profiles were then reconstructed using ARC® Convert software. The peak area of each radioactivity peak/region was integrated using ARC® Evaluation software, and the percent distribution of each peak/region was calculated (%TRA for plasma or %Dose for urine and feces).
Metabolites were characterized and/or identified by LC–MS/MS in conjunction with on-line radioactivity detection. Structures of metabolites were proposed by interpretation of the mass spectral fragmentation pattern, as well as chromatographic behaviors and metabolic pathways.

| Drug-related component in human plasma (radio-profile) | Structure (SMILES) |
| --- | --- |
| detected | COc1cc2c(Oc3ccc4[nH]c(C)cc4c3F)ccnc2cc1O [M18] |
| detected | COc1cc2c(Oc3ccc4[nH]c(C)cc4c3F)ccnc2cc1OCC1(O)CC1 [M28] |
| major drug-related component | COc1cc2c(Oc3ccc4[nH]c(C(=O)O)cc4c3F)ccnc2cc1OCC1(N)CC1 [M30] |
